According to patent publication US7244557B2, “Method of screening modulators of Nod1 signaling” (Regents of the University of Michigan, priority 2003, dated 2007):

Columns and labels:
[1] = tested on: bone marrow-derived macrophages from wild-type mice; test: Cytokine secretion assay (ELISA), bone marrow-derived macrophages from wild-type mice; format: cell-based, mouse; details: 12 hr; for secretion of IL-6 / secretion of TNF-α: 100 ng/ml
Experimental: (§1) A), B), C) 3×10^5 bone marrow-derived macrophages from wild-type littermates (wt) and nod1-deficient mice were stimulated with 100 ng/ml of iE-DAP, MDP or dsRNA for 12 hr A), B). 0, 100 ng/ml Salmonella typhimurium LPS was used in the presence of 0, 1, 1000 ng/ml iE-DAP or 0, 0.1 1 μM immunostimulatory CpG as indicated for 12 hr C) The concentration of TNF-α (a) and IL-6 (b,c) were determined by ELISA using specific antibodies. Values represent the mean of normalized data±S.D. of triplicate cultures.
Reagents. LPS from S. typhimurium, intact and alkaline-detoxified LPS from E. coli O55:B5 as well as purified lipid A preparations of E. coli F583, MDP, DAP and dsRNA were obtained from Sigma-Aldrich (St. Louis, Mo.). PGN from S. aureus was from Fluka-Chemie (Buchs, Germany). Palmitoyl-Cys ((RS)-2,3-di(palmitoyloxy)-propyl)-Ala-Gly) (sBLP), was obtained from Bachem (Torrance, Calif.). The tetrameric form of the disaccharide dipeptide was described previously (Inohara et al., J. Biol. Chem. 278:5509 [2003]). iE-DAP and iQ-DAP, M3P and M4P were synthesized as described (Kitaura et al., J. Med. Chem. 25:335 [1982]) with small modification. Purification of PGN from B. subtilis 168 and C. flaccumfaciens with hydrolases, Cellosyl or recombinant AtlE (amidase domain) and the fractionation and purification of reduced B. subtilis PGN digested with Cellosyl were performed as previously described (Heilman et al., Mol. Microbiol. 24:1013 [1997]; Atrih et al., J. Bact. 181:3956 [1999]). Removal of proteins and reduction of LPS fraction. E. coli O55:B5 LPS (Sigma) was treated with proteinase K at 37° C. for 12 hr to digest contaminating proteins. To eliminate lipoproteins, LPS was subjected to modified phenol extraction with deoxycholate-containing phenol as described (Hirschfeld et al., J. Immunol. 165:618 [2000]). For reduction of carboxyl group in the LPS, the LPS was treated with 1-ethyl-3-(3-dimethylaminopropyl) carbodiimide and then reduced with NaBH4 as described (Taylor et al., Biochemistry 11:1383 [1972]). Preparation of E. coli extract. E. coli K-12 mutants were all based on the SØ864 genetic background (lacZ trp upp relA rpsL) (Neuhard and Thomassen, J. Bacteriol. 126:999). SØ874 carries a large chromosomal deletion removing the gene clusters for the biosynthesis of CA capsule and O-antigen. CLM5 is a derivative of SØ874 with a transposon insertion in the wecC gene that blocks the synthesis of ECA (Marolda et al., J. Bacteriol. 177:5539[1995]). FAM5 is a derivative of SØ874 carrying a deletion that eliminates the incorporation of heptose in the LPS core. Extracts were prepared from all of these E. coli K-12 strains and also from another E. coli K-12 strain, LCD27 YA21-6 (Obtained from Dr. Arisaka, Tokyo Institute of Technology). Bacteria were cultured overnight at 37° C. in Luria broth, killed by treatment with acetone followed by vacuum drying and finally resuspended in 10 mM HEPES. The extract was treated with 1M NaOH at 55° C. for 12 hr and neutralized with 1M HEPES (pH 7.4). The soluble fraction after centrifugation and filtration with 0.22 μm filter was applied to SUPEROSE 12 gel filtration column chromatography. Partial purification of NOD1-stimulatory molecules from E. coli and composition analyses. The amino acid composition of E. coli O55:B5 LPS was determined using AccQ·Tag amino acid analysis system (Waters, Milford, Mass.) after hydrolysis at 110° C. for 24 hr. […]

[2] = tested on: bone marrow-derived macrophages from nod1-deficient mice; test: Cytokine secretion assay (ELISA), bone marrow-derived macrophages from nod1-deficient mice; format: cell-based, mouse; details: 12 hr
Experimental: as §1
Reagents. LPS from S. typhimurium, intact and alkaline-detoxified LPS from E. coli O55:B5 as well as purified lipid A preparations of E. coli F583, MDP, DAP and dsRNA were obtained from Sigma-Aldrich (St. Louis, Mo.). PGN from S. aureus was from Fluka-Chemie (Buchs, Germany). Palmitoyl-Cys ((RS)-2,3-di(palmitoyloxy)-propyl)-Ala-Gly) (sBLP), was obtained from Bachem (Torrance, Calif.). The tetrameric form of the disaccharide dipeptide was described previously (Inohara et al., J. Biol. Chem. 278:5509 [2003]). iE-DAP and iQ-DAP, M3P and M4P were synthesized as described (Kitaura et al., J. Med. Chem. 25:335 [1982]) with small modification. Purification of PGN from B. subtilis 168 and C. flaccumfaciens with hydrolases, Cellosyl or recombinant AtlE (amidase domain) and the fractionation and purification of reduced B. subtilis PGN digested with Cellosyl were performed as previously described (Heilman et al., Mol. Microbiol. 24:1013 [1997]; Atrih et al., J. Bact. 181:3956 [1999]). Removal of proteins and reduction of LPS fraction. E. coli O55:B5 LPS (Sigma) was treated with proteinase K at 37° C. for 12 hr to digest contaminating proteins. To eliminate lipoproteins, LPS was subjected to modified phenol extraction with deoxycholate-containing phenol as described (Hirschfeld et al., J. Immunol. 165:618 [2000]). […] The amino acid composition of E. coli O55:B5 LPS was determined using AccQ·Tag amino acid analysis system (Waters, Milford, Mass.) after hydrolysis at 110° C. for 24 hr. […]

[3] = macrophages lacking NOD1, 100 ng/ml

| Substance | enhancement of the secretion of IL-6 induced by LPS ([1]; 100 ng/ml Salmonella typhimurium LPS) | secretion of IL-6 [1] | secretion of TNF-α [1] | enhancement of the secretion of IL-6 induced by LPS ([2]; nod1 −/− macrophages, 100 ng/ml Salmonella typhimurium LPS) | secretion of IL-6 [2, 3] | secretion of TNF-α [2, 3] |
| --- | --- | --- | --- | --- | --- | --- |
| γ-D-glutamy-meso-diaminopimelic acid [iE-DAP] | enhanced the secretion of IL-6 induced by LPS | induced the secretion | induced the secretion | this effect was impaired | – | – |
| MurNAc-L-Ala-γ-D-Gln [MDP] | – | induced the secretion | induced the secretion | – | responded | responded |
